# Measured values taken from article PMC6220849, “Mechanistic and structural studies of KDM‐catalysed demethylation of histone 1 isotype 4 at lysine 26” (Febs Letters, 2018).
# Square brackets hold non-standard residues; d marks the D form. Ends that are not written are not given here. Lys(Me3) = C[N+](C)(C)CCCC[C@H](N)C(=O)O
# Key:
# KDM4E (KDM4E1–337) = assay: MALDI-TOF MS demethylation activity assay, KDM4E; format: biochemical, human; design: key: 🟢: Indicates that clear demethylation activity was observed; 🟡: Indicates that low level demethylation activity was observed (<10% conversion after 1 h); 🔴: Indicates no activity under the stated conditions (1 μM KDM, 10 μM peptide); 🟡*: *Indicates demethylation activity was only observed with 5 μM KDM; details: peptide as substrate, 1 μM KDM, 10 μM peptide, 50 mM HEPES pH 7.5, Fe(II) 10 μM, ascorbate 100 μM, 2OG 200 μM, 1 h at 37 °C
# Experimental: Recombinant proteins (1 μM) were incubated with peptides (10 μM, sequences are given in Table S1) in 50 mM HEPES, pH 7.5 with addition of Fe(II) ammonium sulfate (10 μM), sodium ascorbate (100 μM) and 2‐oxoglutaric acid (200 μM). Reactions with KDM3A and KDM7A also contained 1 mM tris(2‐carboxyethyl)phosphine hydrochloride. No enzyme reactions were included as negative controls. Reactions were incubated for 1 h at 37 °C before being quenched with 1 : 1 (v/v) methanol. Analysis was carried out by MALDI‐TOF MS (Bruker, Billerica, MA, USA), with demethylation observed as mass shifts of 14 Da.
# The propensity of human JmjC KDMs to catalyse demethylation at H1.4K26 was investigated using recombinant forms of the catalytic domains of representatives of each human JmjC KDM subfamily (KDM2‐7) and fragment peptides (Table S1) 37. Three peptides with identical sequences, corresponding to residues 18–32 of histone H1.4 (H2N‐[…]‐CONH2), but containing either a N ^ε‐tri‐, di‐ or monomethyllysine at K26 were synthesised (Fig. 1B and Table S1). Activity assays monitoring JmjC KDM‐catalysed demethylation of the peptides were then carried out; samples were prepared containing each peptide, 2‐oxoglutarate (2OG), ferrous iron, ascorbate and individual representatives from each JmjC KDM subfamily (KDM2A 38, KDM3A 21, KDM4E 22, KDM5C 39, 40, KDM6B 41, KDM7A 42).
# recombinant human KDM4A = molecular target: T1, recombinant human KDM4A (Homo sapiens, UniProt O75164); assay: Formaldehyde dehydrogenase (FDH)-coupled demethylation assay, Michaelis–Menten kinetics; format: biochemical; details: peptide as substrate
# T1 construct: recombinantly expressed as reported either in Escherichia coli (KDM2A1–557 25, KDM4A1–359 26); His6 (N); made in house; host or cells: Escherichia coli
# T1 sequence (O75164 1-359): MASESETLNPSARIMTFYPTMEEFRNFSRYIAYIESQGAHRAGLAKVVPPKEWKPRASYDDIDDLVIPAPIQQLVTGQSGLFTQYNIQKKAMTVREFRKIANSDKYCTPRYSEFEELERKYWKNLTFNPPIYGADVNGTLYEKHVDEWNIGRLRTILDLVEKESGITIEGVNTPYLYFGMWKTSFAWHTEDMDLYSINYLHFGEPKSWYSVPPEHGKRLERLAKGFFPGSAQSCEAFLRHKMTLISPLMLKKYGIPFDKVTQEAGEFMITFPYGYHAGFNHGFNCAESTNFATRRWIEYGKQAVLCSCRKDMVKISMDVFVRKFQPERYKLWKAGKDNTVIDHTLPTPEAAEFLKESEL
# Experimental: Kinetic parameters for KDM4 enzymes were determined by use of an FDH (formaldehyde dehydrogenase)/NAD^+‐coupled) assay for quantification of the formaldehyde reaction byproduct, as previously described 27. […] Specific activities were measured using a 100‐μM peptide. For Michaelis–Menten experiments, peptide concentrations were varied. Reactions were monitored using a PHERAstar FS plate reader (BMG Labtech, Ortenberg, Germany) with 355 nm excitation and 460 nm emission. Kinetic parameters were calculated from the reaction rate during the initial linear phase of formaldehyde production, which were used to calculate specific activities or fitted to Michaelis–Menten equations using […] PRISM (GraphPad Software, La Jolla, CA, USA).
# Michaelis–Menten kinetics were then conducted with KDM4A. Samples containing KDM4A, 2OG, ascorbate, H1.4K26me3 peptide, NAD^+ and FDH were analysed over time and kinetic parameters were determined by recording the initial reaction rates of NADH production (corresponding to enzymatic production of formaldehyde) at varying peptide concentration.
# [1] = concentration varied, FDH/NAD+-coupled fluorescence assay, 50 mM HEPES pH 7.5, 0.01% Tween-20, 2OG 200 μM, KDM4A, mean and standard deviation of three independent replicates, SD
substance,measurement,setting,value
"TPVKKKAR[Lys(Me3)]SAGAAK [H1.4(18–32)K26me3, peptide of residues 18–32 of histone H1.4 with N ε-trimethyllysine at K26]",demethylation activity on methylated H1.4 peptide,KDM4E (KDM4E1–337),🟢
same,K M,recombinant human KDM4A; [1],32.3 ± 6.4 µM
same,k cat,recombinant human KDM4A; [1],0.32 ± 0.049 s⁻¹
same,k cat/K M,"recombinant human KDM4A; FDH-coupled assay, ratio of k cat (s^−1) and K M (μM)",9800 M⁻¹ s⁻¹
